Test results from paper PMC12487869, “Toward Imaging of the GABA Transporter Type 1 In Vivo: Quantitative Evaluation of 4 Novel PET Radiotracers in Nonhuman Primates” (Journal of Nuclear Medicine, 2025).
“And” between values parts separate entries of the source, which are not always exact repeats. Identical values can stand only once. Each block holds one compound with its values, some of them ahead of it.

How the values were obtained:
GAT-1 [1] = test system: GAT-1; design: method as in PMID 10642842; conditions: in vitro, human brain postmortem; cited from earlier work
[2] = Plasma tiagabine concentration by mass spectrometry; assay type: in vivo, rhesus monkeys (Macaca mulatta); conditions: 0.5 mg/kg tiagabine i.v.; 30–190 min after tiagabine injection
Experimental: For 8 of the 10 blocking scans, venous blood samples were acquired at 30, 60, 90, 120, 160, and 190 min after injection of tiagabine, in addition to 1 control sample before tiagabine injection, to measure its concentration using mass spectrometry (described in the supplemental materials).

[3] = design: method as in PMID 9530548; conditions: humans, 24-mg single oral dose; cited from earlier work
GABA = conditions: vervet brain in vivo; cited from earlier work
[4] = test system: GABAA receptor α5 subtype; design: method as in PMID 30102960, PMID 32578977; conditions: cited from earlier work
GAT-1 [5] = target: T1, GAT-1 (Macaca mulatta, UniProt H9ELS5); assay: PET brain imaging with kinetic modeling (1TCM), baseline and tiagabine blocking scans; assay type: in vivo, rhesus monkeys (Macaca mulatta); conditions: for Median VT across ROIs: 1TCM
T1 construct: from tissue; host or cells: brain of living rhesus monkeys (in vivo PET)
Experimental: Twenty scans were acquired from 4 rhesus monkeys (Macaca mulatta). Each monkey underwent baseline and blocking scans with ^18F-GATT-31, ^18F-GATT-34, ^18F-GATT-39, or ^18F-GATT-44 (Fig. 1) on a Focus-220 small-animal PET scanner (Siemens Healthineers).
(§1) Before each scan, each monkey was sedated with alfaxalone (2 mg/kg), midazolam (0.3 mg/kg), and dexmedetomidine (0.01 mg/kg), and anesthesia was maintained with 1.5%–2.5% isoflurane. Heart rate, blood pressure, respiration rate, and oxygen saturation were monitored continuously. An intravenous line was placed in the saphenous or cephalic vein for delivery of the radiotracer, as well as tiagabine during blocking studies (0.5 mg/kg administered 19 ± 4 min before radiotracer injections). A catheter was placed in the radial or tibial artery for blood sampling.
Before injection, a transmission scan was acquired. Starting with injection of the radiotracer, PET emission data were acquired in list-mode format and binned into 45 frames (6 × 30 s, 3 × 1 min, 2 × 2 min, and 34 × 5 min).
For region-of-interest (ROI) definition, each PET image was registered to an in-house rhesus monkey anatomical MRI template using the concatenation of a rigid-body transformation between the summed PET image (0–10 min) and corresponding monkey’s MRI (using the FMRIB Linear Image Registration Tool) and a nonlinear transformation matrix estimated between the monkey’s MRI and the MRI template (BioImage Suite software version 3.01). Regional time–activity curves were extracted for the following 11 ROIs: brain stem, caudate, cerebellum, cingulate cortex, frontal cortex, hippocampus, insula, occipital cortex, putamen, temporal cortex, and thalamus.
For each baseline and blocking scan, kinetic analysis was performed using a 1-tissue compartment model (1TCM), a reversible 2-tissue compartment model (2TCM; k4 > 0), and an irreversible 2-tissue compartment model (2TiCM; k4 = 0), including a blood volume fraction (Vb) term and a time-delay term. Vb was estimated for each time–activity curve using the whole-blood curve fitted with a sum of exponentials. The time delay (Δt) between the input function and the brain was estimated by fitting the first 10 min of the whole-brain time–activity curve to a 1TCM with 3 parameters: K1, Vb, and Δt (k2 was set to 0 because of the negligible radiotracer washout during the first 10 min). This estimated time delay value was then used in the time–activity curve fits. The primary parameters of interest were the influx constant (K1, expressed in microliters per minute per cubic centimeter, since values were low), the volume of distribution (VT, expressed in milliliters per cubic centimeter), and the net influx constant (Ki, expressed in milliliters per minute per cubic centimeter) for 2TiCM.

[6] = Metabolite analysis of arterial plasma (unmetabolized parent fraction), column-switching HPLC; assay type: in vivo, rhesus monkeys (Macaca mulatta); conditions: mean ± SD
Experimental: Arterial blood samples were collected for each scan to measure the input function. Metabolite analysis was performed using an automatic column-switching high-performance liquid chromatography system ([22]) for 7 arterial blood samples collected at 5, 15, 30, 60, 90, 120, and 180 min. The radiometabolite-corrected arterial plasma input function was obtained by calculating the product of the fitted total plasma (fitted with a sum of exponentials) and unmetabolized parent fraction curves (using an integrated γ-function ([23])).

[7] = Plasma free fraction (fp), ultrafiltration method; assay type: in vitro ADME, rhesus monkeys (Macaca mulatta); conditions: measured in triplicate per scan, mean ± SD
Experimental: The plasma free fraction (fp) for each scan was measured in triplicate using the ultrafiltration method and calculated as the ratio of radioactivity in the filtrate to that in the plasma ([24]).

P-glycoprotein (PgP) = P-glycoprotein (PgP) (Homo sapiens, UniProt P08183); assay: Efflux by P-glycoprotein; assay type: in vitro ADME
GAT-1 [8] = target: T1, GAT-1; assay: Occupancy plots from baseline and tiagabine blocking PET scans (occupancy, VND, BPND); assay type: in vivo, rhesus monkeys (Macaca mulatta); conditions: for VND: occupancy plot; for Occupancy: tiagabine 0.5 mg/kg occupancy measured with this radiotracer
Experimental: as §1
Occupancy plots ([26]) were used to estimate tiagabine occupancy and the nondisplaceable volume of distribution (VND). This VND value was used to compute the nondisplaceable binding potential (BPND = VT/VND − 1). To compare the performance between 2 radiotracers, a Guo plot ([27]) was created, using baseline VT values, to assess the relative affinity and BPND values of each radiotracer.

[9] = after blocking with tiagabine 0.5 mg/kg

T1 sequence (H9ELS5 1-599): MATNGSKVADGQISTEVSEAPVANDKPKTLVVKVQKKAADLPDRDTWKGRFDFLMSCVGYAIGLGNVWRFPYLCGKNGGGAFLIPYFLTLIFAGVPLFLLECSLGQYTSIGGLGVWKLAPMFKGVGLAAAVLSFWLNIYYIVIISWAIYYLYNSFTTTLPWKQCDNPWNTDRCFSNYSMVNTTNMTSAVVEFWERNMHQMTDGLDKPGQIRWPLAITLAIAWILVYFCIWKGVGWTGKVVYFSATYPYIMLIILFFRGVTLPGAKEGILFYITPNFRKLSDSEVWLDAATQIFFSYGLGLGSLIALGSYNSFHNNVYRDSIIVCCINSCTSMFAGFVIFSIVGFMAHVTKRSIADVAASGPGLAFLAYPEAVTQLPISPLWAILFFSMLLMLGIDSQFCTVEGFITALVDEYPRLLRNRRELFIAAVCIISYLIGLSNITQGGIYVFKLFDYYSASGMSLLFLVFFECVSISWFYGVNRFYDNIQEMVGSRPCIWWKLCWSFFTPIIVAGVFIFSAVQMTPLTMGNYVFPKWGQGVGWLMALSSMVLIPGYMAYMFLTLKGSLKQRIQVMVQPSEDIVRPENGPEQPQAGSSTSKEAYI
P-glycoprotein (PgP), sequence (P08183 whole entry): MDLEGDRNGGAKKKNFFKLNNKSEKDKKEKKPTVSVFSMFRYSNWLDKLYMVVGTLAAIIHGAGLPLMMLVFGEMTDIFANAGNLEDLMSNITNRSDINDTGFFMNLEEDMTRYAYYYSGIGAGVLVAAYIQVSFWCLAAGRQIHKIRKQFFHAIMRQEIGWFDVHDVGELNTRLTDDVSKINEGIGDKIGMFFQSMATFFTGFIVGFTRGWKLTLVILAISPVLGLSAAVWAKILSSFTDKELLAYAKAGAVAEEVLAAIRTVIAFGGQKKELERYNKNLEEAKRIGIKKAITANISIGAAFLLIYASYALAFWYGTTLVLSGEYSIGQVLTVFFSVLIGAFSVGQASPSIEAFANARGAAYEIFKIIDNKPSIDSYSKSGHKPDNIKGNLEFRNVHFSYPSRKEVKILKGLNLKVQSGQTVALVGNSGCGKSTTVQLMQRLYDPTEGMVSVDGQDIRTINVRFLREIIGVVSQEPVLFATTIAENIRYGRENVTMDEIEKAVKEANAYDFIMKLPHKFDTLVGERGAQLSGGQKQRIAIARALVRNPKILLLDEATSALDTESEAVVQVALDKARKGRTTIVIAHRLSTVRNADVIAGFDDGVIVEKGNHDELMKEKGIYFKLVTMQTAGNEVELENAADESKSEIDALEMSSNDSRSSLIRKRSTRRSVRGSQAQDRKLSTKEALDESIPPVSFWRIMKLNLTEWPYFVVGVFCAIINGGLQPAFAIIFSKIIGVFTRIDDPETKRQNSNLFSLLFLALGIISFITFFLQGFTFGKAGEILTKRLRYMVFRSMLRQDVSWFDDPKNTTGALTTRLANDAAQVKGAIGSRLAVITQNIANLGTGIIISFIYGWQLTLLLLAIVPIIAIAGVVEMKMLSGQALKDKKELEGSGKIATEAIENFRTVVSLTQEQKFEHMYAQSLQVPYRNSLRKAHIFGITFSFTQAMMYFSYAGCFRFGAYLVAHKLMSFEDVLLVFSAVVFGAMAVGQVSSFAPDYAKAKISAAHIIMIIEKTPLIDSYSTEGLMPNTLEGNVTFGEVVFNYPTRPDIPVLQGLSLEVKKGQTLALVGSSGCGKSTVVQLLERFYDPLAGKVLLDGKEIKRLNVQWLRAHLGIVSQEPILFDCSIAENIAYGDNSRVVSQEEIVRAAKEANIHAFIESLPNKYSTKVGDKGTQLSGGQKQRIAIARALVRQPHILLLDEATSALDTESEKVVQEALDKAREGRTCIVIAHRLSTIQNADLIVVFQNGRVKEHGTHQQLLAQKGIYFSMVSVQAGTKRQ

Compound: Cc1ccsc1C(=CCCN1CCC[C@@H](C(=O)O)C1)c1sccc1C [tiagabine, (R)-1-[4,4-bis(3-methyl-2-thienyl)-3-butenyl]-3-piperidinecarboxylic acid]
Selectivity for GAT-1 (GAT-1 [1]): excellent selectivity for GAT-1
Average plasma concentration [2]: 385 ± 70 µg/L
Elimination half-life [3]: 7.3 h
Plasma concentration peak value [3]: 552 ng/mL
Effect on GABA in brain (GABA): increase GABA

Compound: CCOC(=O)c1ncn2c1CN([11CH3])C(=O)c1cc(N=[N+]=[N-])ccc1-2 [[^11C]Ro15-4513]
Affinity [4]: high affinity

Compound: Cc1ccccc1C(=COCCN1CCCC(C(=O)O)C1)c1ccccc1[18F] (stereo not shown) [^18F-GATT-31]
Efflux by PgP (category) (P-glycoprotein (PgP)): low efflux by PgP
Median VT across ROIs (GAT-1 [5]; [9]): 1.5 mL/cm^3
Median VT across ROIs (GAT-1 [5]; baseline): 2.8 mL/cm^3
VND (GAT-1 [8]; monkey 1): 0.31 mL/cm^3
VND (GAT-1 [8]; monkey 2): −0.61 mL/cm^3 and −0.61 ^* mL/cm^3
VND (GAT-1 [8]; monkey 3): 1.02 mL/cm^3
Occupancy (GAT-1 [8]; monkey 1): 69%
Occupancy (GAT-1 [8]; monkey 2): 22%
Occupancy (GAT-1 [8]; monkey 3): 70%
Parent compound ([6]; 30 min): 87 ± 3%
Parent compound ([6]; 90 min): 76 ± 6%
Parent compound ([6]; 180 min): 63% and 63 ± 11%
Free fraction [7]: 12.4 ± 1.8%

The remaining lines, values ahead:

K1 values (GAT-1 [5]; 1TCM influx constant): especially low
Median VT across ROIs (GAT-1 [5]; [9]): 0.9 mL/cm^3
Median VT across ROIs (GAT-1 [5]; baseline): 1.6 mL/cm^3
Parent compound ([6]; 30 min): 95 ± 4%
Parent compound ([6]; 90 min): 85 ± 9%
Free fraction [7]: 10.5 ± 1.0%
Compound: O=C(O)C1CCCN(CCC=C(c2ccccc2[18F])c2ccccc2Cl)C1 (stereo not shown) [^18F-GATT-39]

Median VT across ROIs (GAT-1 [5]; [9]): 1.3 mL/cm^3
Median VT across ROIs (GAT-1 [5]; baseline): 1.5 mL/cm^3
Blocking effect of tiagabine on VT (GAT-1 [5]; tiagabine 0.5 mg/kg): small
Parent compound ([6]; 30 min): 91 ± 2%
Parent compound ([6]; 90 min): 83 ± 2%
Free fraction [7]: 10.8 ± 0.4%
Compound: Cc1ccccc1C(=COCCN1CCCC(C(=O)O)C1)c1ccc([18F])cc1 (stereo not shown) [^18F-GATT-34]
